Consider two compounds from EP0451422A1, “Pharmaceutically active fluoromethyltyrosine compounds” (MERRELL DOW PHARMACEUTICALS INC., priority 1990, dated 1991).

For the test, the target named is T1, tyrosine hydroxylase (Mus musculus, UniProt P24529).
T1 construct: from tissue; host or cells: living mice
Put plainly: In vivo inhibition of tyrosine hydroxylase (cortical norepinephrine levels in mice, HPLC with electrochemical detection). Conditions: mice injected intraperitoneally; cerebral cortices removed six hours later; norepinephrine in tissue; dose not given; control 198.2 +/- 18.4 ng/g. How it is done: The tyrosine hydroxylase inhibitory properties of the compounds of this invention can readily be determined by standard and well known procedures. For example, determination of tyrosine hydroxylase inhibition is exemplified by a procedure wherein mice are injected intraperitoneally with a test compound, and six hours later the mice are sacrificed, the cerebral cortices removed and frozen on dry ice. The levels of norepinephrine in the tissue are measured by HPLC with electrochemical detection, according to the process of Dudley, et al, J. Pharmacol. Exp. Ther., 217, 834-840 (1981). Reduction in cortical norepinephrine levels indicates effective, in vivo inhibition of tyrosine hydroxylase. The following Table I illustrates the decreased levels of norepinephrine after treatment with a compound of this invention (2-fluoromethyl tyrosine) in relation to levels of norepinephrine present after treatment with a known inhibitor (alpha-methyl-p-tyrosine), and as compared to the amount of norepinephrine produced without treatment with a test compound (control).

T1 sequence (P24529 whole entry): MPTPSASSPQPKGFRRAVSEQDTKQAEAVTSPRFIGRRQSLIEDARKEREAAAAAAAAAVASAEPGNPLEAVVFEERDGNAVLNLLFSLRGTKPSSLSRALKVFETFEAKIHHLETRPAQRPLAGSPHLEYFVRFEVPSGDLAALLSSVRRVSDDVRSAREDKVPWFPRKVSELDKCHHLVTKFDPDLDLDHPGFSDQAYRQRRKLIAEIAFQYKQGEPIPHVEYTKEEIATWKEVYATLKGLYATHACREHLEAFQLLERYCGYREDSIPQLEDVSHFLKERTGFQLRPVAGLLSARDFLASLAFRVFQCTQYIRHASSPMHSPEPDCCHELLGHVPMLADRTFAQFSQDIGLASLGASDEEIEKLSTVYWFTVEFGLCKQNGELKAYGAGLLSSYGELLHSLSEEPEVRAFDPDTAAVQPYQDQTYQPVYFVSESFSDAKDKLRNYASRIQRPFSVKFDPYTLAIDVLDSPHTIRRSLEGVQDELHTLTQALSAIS

In turn, `N[C@@H](Cc1ccc(O)cc1CF)C(=O)O` [2-fluoromethyl-tyrosine, 2-Fluoromethyltyrosine] returned an NOREPINEPHRINE of 124.9 ± 11.4 ng/g. Under `CC(N)(Cc1ccc(O)cc1)C(=O)O` (stereo not drawn) [α-methyl-p-tyrosine] stands 115.7 ± 18.6 ng/g.
